Patent US20260317344A1, “EGFR INHIBITORS FOR TREATING DISEASE” (BLOSSOMHILL THERAPEUTICS, INC., priority 2023, published 2026)

Tests used:
EGFR (L858R) = EGFR (L858R) (Homo sapiens, UniProt P00533, L858R); assay: HotSpot radiometric kinase assay, inhibition of EGFR L858R mutant; assay type: biochemical; conditions: 33P ATP, room temperature, 120 m
Procedure, shortened: (§1)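 Kinase/substrate pairs in 20 mM HEPES pH 7.5, 10 mM MgCl2, 1 mM EGTA, 0.02% Brij35, 0.02 mg/ml BSA, 0.1 mM Na3VO4, 2 mM DTT, 1% DMSO were preincubated ~20 min with compound. ATP plus 33P-ATP (10 µM final) was added for 120 min at room temperature, and P81 filter binding gave IC50 values.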

NCI-H1975 cells = assay: 5-Day CellTiter Glo (CTG) cell proliferation assay, NCI-H1975; assay type: cell-based; conditions: Homo sapiens; NCI-H1975 cells (L858R/T790M EGFR), 5-day CTG proliferation, 120 hours; read-out: H1975 IC50
Procedure, shortened: (§2)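 Proliferation of EGFR-driven NSCLC cells was scored as CellTiter-Glo 2.0 luminescence after a 5-day (120 h) incubation with compounds in 9 doses. IC50 values came from the dose-response curves.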

EGFR WT = EGFR WT (Homo sapiens, UniProt P00533); assay: HotSpot radiometric kinase assay, inhibition of EGFR WT; assay type: biochemical; conditions: 33P ATP, room temperature, 120 m
Procedure, shortened: as §1

[1] = test system: BaF3 cells with engineered EGFR L858R/T790M/C797S; assay: 3-Day CellTiter Glo (CTG) cell proliferation assay, BaF3 EGFR L858R/T790M/C797S; assay type: cell-based; conditions: Mus musculus, 3-day CTG proliferation, 72 hours
Procedure, shortened: (§3)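 Growth inhibition in transgene-bearing BaF3 lines was scored after three days of compound treatment by CellTiter-Glo 2.0 ATP luminescence, yielding IC50 values.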

[2] = test system: BaF3 cells with engineered EGFR L858R/C797S; assay: 3-Day CellTiter Glo (CTG) cell proliferation assay, BaF3 EGFR L858R/C797S; assay type: cell-based; conditions: Mus musculus, 3-day CTG proliferation, 72 hours
Procedure, shortened: as §3

[3] = biological target: T1, pEGFR, NCI-H1975 cells (L858R/T790M EGFR) (Homo sapiens, UniProt P00533, L858R/T790M); assay: Cellular EGFR phosphorylation assay (LANCE Ultra TR-FRET) in NCI-H1975 cells; assay type: cell-based; conditions: 4 hours at 37° C., read-out: H1975 pEGFR IC50
T1 construct: pEGFR (Tyr1068) TR-FRET
Procedure, shortened: (§4)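 PC-9 and NCI-H1975 cells (50 thousand/well) or A431 cells (30 thousand/well) treated next day for 4 h at 37° C with a 9-dose 3-fold titration; A431 stimulated with 40 ng/mL EGF for the final 10 min. Lysate phospho-EGFR (Tyr1068) read by LANCE Ultra TR-FRET; IC50 derived.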

HCC827 cells = assay: 5-Day CellTiter Glo (CTG) cell proliferation assay, HCC827; assay type: cell-based; conditions: Homo sapiens; HCC827 cells (d746-750 EGFR), 5-day CTG proliferation, 120 hours; read-out: HCC827 IC50
Procedure, shortened: as §2

EGFR (D746-750) = EGFR (D746-750) (Homo sapiens, UniProt P00533, DEL746-750); assay: HotSpot radiometric kinase assay, inhibition of EGFR 746-750 mutant; assay type: biochemical; conditions: 33P ATP, room temperature, 120 m
Procedure, shortened: (§5)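 Radiometric filter-binding format: ATP plus 33P-ATP ([…]) was added about 20 min after compound to kinase and substrate in HEPES pH 7.5 buffer with Mg2+, EGTA, Brij35, BSA, vanadate, DTT and 1% DMSO. After 120 min at room temperature, reactions were spotted on P81 paper and washed in phosphoric acid; IC50 values fitted.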

PC-9 cells = assay: 5-Day CellTiter Glo (CTG) cell proliferation assay, PC-9; assay type: cell-based; conditions: Homo sapiens; PC-9 cells (d746-750 EGFR), 5-day CTG proliferation, 120 hours; read-out: PC-9 IC50
Procedure, shortened: as §2

[4] = test system: BaF3 cells with engineered EGFR d746-750/T790M; assay: 3-Day CellTiter Glo (CTG) cell proliferation assay, BaF3 EGFR d746-750/T790M; assay type: cell-based; conditions: Mus musculus; BaF3 EGFR d746-750/T790M cells, 3-day CTG proliferation, 72 hours
Procedure, shortened: as §3

EGFR (L858R/T790M) = EGFR (L858R/T790M) (Homo sapiens, UniProt P00533, L858R/T790M); assay: HotSpot radiometric kinase assay, inhibition of EGFR L858R/T790M mutant; assay type: biochemical; conditions: 33P ATP, room temperature, 120 m
Procedure, shortened: as §5

EGFR (D746-750/C797S) = EGFR (D746-750/C797S) (Homo sapiens, UniProt P00533, C797S/DEL746-750); assay: HotSpot radiometric kinase assay, inhibition of EGFR 746-750/C797S mutant; assay type: biochemical; conditions: 33P ATP, room temperature, 120 m
Procedure, shortened: as §5

EGFR (L858R/T790M/C797S) = EGFR (L858R/T790M/C797S) (Homo sapiens, UniProt P00533, C797S/L858R/T790M); assay: HotSpot radiometric kinase assay, inhibition of EGFR L858R/T790M/C797S mutant; assay type: biochemical; conditions: 33P ATP, room temperature, 120 m
Procedure, shortened: as §5

EGFR (D770_N771insNPG) = EGFR (D770_N771insNPG) (Homo sapiens, UniProt P00533, INS770NPG); assay: HotSpot radiometric kinase assay, inhibition of EGFR (D770_N771insNPG) mutant; assay type: biochemical; conditions: 33P ATP, room temperature, 120 m
Procedure, shortened: as §5

[5] = biological target: T2, pEGFR, A431 cells (wildtype EGFR) (Homo sapiens, UniProt P00533); assay: Cellular EGFR phosphorylation assay (LANCE Ultra TR-FRET) in A431 cells; assay type: cell-based; conditions: 4 hours at 37° C., 40 ng/mL EGF for the final 10 minutes, read-out: A431 pEGFR IC50
T2 construct: pEGFR (Tyr1068) TR-FRET
Procedure, shortened: as §4

[6] = biological target: T3, pEGFR, PC-9 cells (d746-750 EGFR) (Homo sapiens, UniProt P00533, DEL746-750); assay: Cellular EGFR phosphorylation assay (LANCE Ultra TR-FRET) in PC-9 cells; assay type: cell-based; conditions: 4 hours at 37° C., read-out: PC-9 pEGFR IC50
T3 construct: pEGFR (Tyr1068) TR-FRET
Procedure, shortened: as §4

Chain of EGFR (L858R/T790M/C797S) (P00533 25-1210 T790M/C797S/L858R): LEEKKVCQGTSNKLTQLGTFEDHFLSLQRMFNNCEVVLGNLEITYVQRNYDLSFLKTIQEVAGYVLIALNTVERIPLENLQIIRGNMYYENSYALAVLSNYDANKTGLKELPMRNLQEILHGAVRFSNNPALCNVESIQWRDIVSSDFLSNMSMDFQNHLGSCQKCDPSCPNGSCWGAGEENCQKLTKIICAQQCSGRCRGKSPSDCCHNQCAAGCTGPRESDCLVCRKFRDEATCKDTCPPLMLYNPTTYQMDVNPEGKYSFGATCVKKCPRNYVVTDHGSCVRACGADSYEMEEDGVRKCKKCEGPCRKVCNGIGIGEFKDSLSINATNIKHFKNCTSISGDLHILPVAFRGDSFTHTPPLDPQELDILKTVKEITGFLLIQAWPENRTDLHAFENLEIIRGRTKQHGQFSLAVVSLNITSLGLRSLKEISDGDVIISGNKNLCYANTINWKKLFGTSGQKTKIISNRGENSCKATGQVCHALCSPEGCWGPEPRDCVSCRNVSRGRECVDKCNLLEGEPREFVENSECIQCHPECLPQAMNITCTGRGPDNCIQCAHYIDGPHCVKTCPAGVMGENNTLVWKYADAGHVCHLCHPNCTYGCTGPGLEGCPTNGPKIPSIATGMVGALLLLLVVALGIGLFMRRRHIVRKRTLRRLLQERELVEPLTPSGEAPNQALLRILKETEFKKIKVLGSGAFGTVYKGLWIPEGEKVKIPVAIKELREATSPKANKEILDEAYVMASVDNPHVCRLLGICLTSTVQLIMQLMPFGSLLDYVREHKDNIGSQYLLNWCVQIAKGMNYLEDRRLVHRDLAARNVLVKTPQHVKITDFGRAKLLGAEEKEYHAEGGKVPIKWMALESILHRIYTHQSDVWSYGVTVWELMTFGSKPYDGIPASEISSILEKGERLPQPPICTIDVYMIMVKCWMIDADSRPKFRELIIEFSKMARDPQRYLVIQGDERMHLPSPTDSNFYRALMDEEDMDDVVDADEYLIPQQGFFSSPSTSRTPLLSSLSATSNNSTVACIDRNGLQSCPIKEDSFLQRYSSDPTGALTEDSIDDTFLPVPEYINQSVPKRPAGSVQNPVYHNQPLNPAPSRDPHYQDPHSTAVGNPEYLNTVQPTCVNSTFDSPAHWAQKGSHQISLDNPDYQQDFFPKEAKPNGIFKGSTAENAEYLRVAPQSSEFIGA
T2 sequence (P00533 25-1210): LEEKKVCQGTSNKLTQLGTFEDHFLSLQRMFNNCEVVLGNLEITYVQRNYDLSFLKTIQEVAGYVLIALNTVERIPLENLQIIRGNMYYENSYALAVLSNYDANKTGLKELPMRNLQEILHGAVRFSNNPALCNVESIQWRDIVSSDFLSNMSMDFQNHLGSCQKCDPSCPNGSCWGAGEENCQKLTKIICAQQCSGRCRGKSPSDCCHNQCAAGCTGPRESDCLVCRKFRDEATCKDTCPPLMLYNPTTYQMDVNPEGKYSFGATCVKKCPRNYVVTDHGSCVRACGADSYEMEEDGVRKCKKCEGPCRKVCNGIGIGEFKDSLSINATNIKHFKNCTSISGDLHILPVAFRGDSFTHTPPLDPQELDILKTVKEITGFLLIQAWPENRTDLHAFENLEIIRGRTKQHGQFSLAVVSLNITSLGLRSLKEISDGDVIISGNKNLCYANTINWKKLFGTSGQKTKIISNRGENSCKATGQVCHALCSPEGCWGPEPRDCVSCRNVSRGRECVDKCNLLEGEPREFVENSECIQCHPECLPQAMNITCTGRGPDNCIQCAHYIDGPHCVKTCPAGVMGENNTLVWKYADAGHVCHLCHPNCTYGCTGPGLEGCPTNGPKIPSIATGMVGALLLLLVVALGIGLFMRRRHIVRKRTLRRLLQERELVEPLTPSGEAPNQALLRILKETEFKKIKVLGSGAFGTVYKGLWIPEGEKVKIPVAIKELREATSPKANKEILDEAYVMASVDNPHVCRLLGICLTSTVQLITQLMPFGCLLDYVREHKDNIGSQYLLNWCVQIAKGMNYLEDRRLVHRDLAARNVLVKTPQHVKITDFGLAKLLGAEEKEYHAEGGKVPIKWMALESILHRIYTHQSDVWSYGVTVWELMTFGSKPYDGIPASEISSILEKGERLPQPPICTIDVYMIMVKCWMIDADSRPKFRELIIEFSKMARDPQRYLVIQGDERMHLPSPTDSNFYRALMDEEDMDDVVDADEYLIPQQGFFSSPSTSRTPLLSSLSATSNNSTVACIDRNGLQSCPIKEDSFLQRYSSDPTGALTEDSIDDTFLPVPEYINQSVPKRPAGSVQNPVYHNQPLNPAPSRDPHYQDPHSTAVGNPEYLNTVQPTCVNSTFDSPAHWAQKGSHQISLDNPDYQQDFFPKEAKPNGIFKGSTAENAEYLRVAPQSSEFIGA
Chain of EGFR WT (P00533 25-1210): as above
T1 sequence (P00533 25-1210 T790M/L858R): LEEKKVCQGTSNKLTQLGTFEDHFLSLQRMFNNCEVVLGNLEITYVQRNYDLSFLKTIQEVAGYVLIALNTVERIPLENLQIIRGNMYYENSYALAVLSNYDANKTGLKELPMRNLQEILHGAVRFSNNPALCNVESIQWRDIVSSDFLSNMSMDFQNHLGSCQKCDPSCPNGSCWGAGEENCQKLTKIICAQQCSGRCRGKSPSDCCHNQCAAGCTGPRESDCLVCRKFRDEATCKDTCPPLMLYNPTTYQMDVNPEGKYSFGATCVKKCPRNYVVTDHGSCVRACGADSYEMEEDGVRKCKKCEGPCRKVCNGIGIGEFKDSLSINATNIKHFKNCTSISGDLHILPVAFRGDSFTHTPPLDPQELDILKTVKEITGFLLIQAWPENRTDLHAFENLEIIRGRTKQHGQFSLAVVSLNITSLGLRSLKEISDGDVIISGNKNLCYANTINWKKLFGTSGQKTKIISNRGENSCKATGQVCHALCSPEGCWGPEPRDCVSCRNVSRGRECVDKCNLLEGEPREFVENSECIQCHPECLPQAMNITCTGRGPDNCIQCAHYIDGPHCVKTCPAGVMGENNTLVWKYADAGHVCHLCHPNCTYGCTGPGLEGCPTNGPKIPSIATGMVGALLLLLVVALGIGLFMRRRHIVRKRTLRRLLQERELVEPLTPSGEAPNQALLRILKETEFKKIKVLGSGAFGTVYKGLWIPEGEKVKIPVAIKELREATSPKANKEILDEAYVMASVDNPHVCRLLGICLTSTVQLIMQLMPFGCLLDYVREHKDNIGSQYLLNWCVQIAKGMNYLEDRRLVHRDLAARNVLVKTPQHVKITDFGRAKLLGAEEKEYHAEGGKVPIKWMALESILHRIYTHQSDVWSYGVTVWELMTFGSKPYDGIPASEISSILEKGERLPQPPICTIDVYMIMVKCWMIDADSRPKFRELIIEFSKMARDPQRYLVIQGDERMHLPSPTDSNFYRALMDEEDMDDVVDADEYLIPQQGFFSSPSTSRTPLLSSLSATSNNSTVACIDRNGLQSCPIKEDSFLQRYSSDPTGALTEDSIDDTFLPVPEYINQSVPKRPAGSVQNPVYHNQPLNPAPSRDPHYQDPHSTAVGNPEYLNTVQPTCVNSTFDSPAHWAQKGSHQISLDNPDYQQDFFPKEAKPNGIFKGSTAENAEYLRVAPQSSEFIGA

IC50 (EGFR (L858R)) [pM] | IC50 (NCI-H1975 cells) [pM] | IC50 (EGFR WT) [pM] | IC50 [1] [pM] | IC50 [2] [pM] | IC50 [3] [pM] | IC50 (HCC827 cells) [pM] | IC50 (EGFR (D746-750)) [pM] | IC50 (PC-9 cells) [pM] | IC50 [4] [pM] | IC50 (EGFR (L858R/T790M)) [pM] | IC50 (EGFR (D746-750/C797S)) [pM] | IC50 (EGFR (L858R/T790M/C797S)) [pM] | IC50 (EGFR (D770_N771insNPG)) [pM] | IC50 [5] [pM] | IC50 [6] [pM] | SMILES
350 | 920 | 150 | 810 | 100 | 1540 | 110 | 550 | 360 | 440 | 700 | 370 | 480 | 320 | 8100 | 1050 | CCOc1nn(CCO)c2c1/C=C/c1n[nH]c3cnc(cc13)-c1c(C)nn(C)c1O[C@@H](C)CN(C(C)C)C2 [Ex. 8, 2-[(10S,17E)-16-ethoxy-6,8,10-trimethyl-12-(propan-2-yl)-2,8,10,11,12,13-hexahydro-14H-5,3-(azenometheno)tripyrazolo[3,4-f:3′,4′-j:4″,3″-n][1,4]oxazacyclopentadecin-14-yl]ethan-1-ol]
150 | 950 | 50 | 690 | 60 | 1540 | 340 | 210 | 700 | 570 | 160 | 210 | 130 | 100 | 6080 | 640 | CCOc1nn([C@@H](C)CO)c2c1/C=C/c1n[nH]c3c(C)nc(cc13)-c1c(C)nn(C)c1O[C@H](C)[C@H]1CCCN1C2 [Ex. 180, (2S)-2-[(8aR,9R,19E)-1-ethoxy-9,11,13,21-tetramethyl-7,8,8a,9,11,17-hexahydro-6H-14,16-(azenometheno)tripyrazolo[3,4-f:3′,4′-j:4″,3″-n]pyrrolo[2,1-c][1,4]oxazacyclopentadecin-3(4H)-yl]propan-1-ol]
510 | 19500 | 430 | 2460 | 290 | 8910 | 530 | 450 | 2140 | 1440 | 1110 | 1320 | 4080 | 590 | 15600 | 3240 | CCOc1nn(CCO)c2c1/C=C/c1n[nH]c3cnc(cc13)-c1c(C)nn(C)c1OC[C@@H](C)N(CC)C2 [Ex. 18, 2-[(11R,17E)-16-ethoxy-12-ethyl-6,8,11-trimethyl-2,8,10,11,12,13-hexahydro-14H-5,3-(azenometheno)tripyrazolo[3,4-f:3′,4′-j:4″,3″-n][1,4]oxazacyclopentadecin-14-yl]ethan-1-ol]
2390 | 1110 | 800 | 1160 | 110 | 3400 | 270 | 730 | 440 | 660 | 1440 | 1970 | 930 | 900 | 12200 | 1600 | CCOc1nn([C@@H](C)CO)c2c1/C=C/c1n[nH]c3cnc(cc13)-c1c(C)nn(C)c1O[C@@H](C)CN(CC)C2 [Ex. 26, (2S)-2-[(10S,17E)-16-ethoxy-12-ethyl-6,8,10-trimethyl-2,8,10,11,12,13-hexahydro-14H-5,3-(azenometheno)tripyrazolo[3,4-f:3′,4′-j:4″,3″-n][1,4]oxazacyclopentadecin-14-yl]propan-1-ol]

More lines, now with the values behind:

SMILES | IC50 (EGFR (L858R)) [pM] | IC50 (NCI-H1975 cells) [pM] | IC50 (EGFR WT) [pM] | IC50 [1] [pM] | IC50 [2] [pM] | IC50 [3] [pM] | IC50 (HCC827 cells) [pM] | IC50 (EGFR (D746-750)) [pM] | IC50 (PC-9 cells) [pM] | IC50 [4] [pM] | IC50 (EGFR (L858R/T790M)) [pM] | IC50 (EGFR (D746-750/C797S)) [pM] | IC50 (EGFR (L858R/T790M/C797S)) [pM] | IC50 (EGFR (D770_N771insNPG)) [pM] | IC50 [5] [pM] | IC50 [6] [pM]
CCOc1nn([C@@H](C)CO)c2c1/C=C/c1n[nH]c3cnc(cc13)-c1c(C)nn(C)c1O[C@@H](C)CN(C)C2 [Ex. 27, (2S)-2-[(10S,17E)-16-ethoxy-6,8,10,12-tetramethyl-2,8,10,11,12,13-hexahydro-14H-5,3-(azenometheno)tripyrazolo[3,4-f:3′,4′-j:4″,3″-n][1,4]oxazacyclopentadecin-14-yl]propan-1-ol] | 890 | 970 | 310 | 730 | 70 | 1850 | 260 | 280 | 450 | 550 | 510 | 900 | 450 | 270 | 12500 | 910
CCN1Cc2c(c(C)nn2CCO)/C=C/c2n[nH]c3cnc(cc23)-c2c(C)nn(C)c2O[C@H](C)C1 [Ex. 14, 2-[(10R,17E)-12-ethyl-6,8,10,16-tetramethyl-2,8,10,11,12,13-hexahydro-14H-5,3-(azenometheno)tripyrazolo[3,4-f:3′,4′-j:4″,3″-n][1,4]oxazacyclopentadecin-14-yl]ethan-1-ol] | 250 | 110000 | 80 | 5240 | 1240 | 7520 | 2870 | 470 | 54500 | 22300 | 230 | 200 | 220 | 150 | 44700 | 11800
CCOc1nn(CCO)c2c1/C=C/c1n[nH]c3c(C)nc(cc13)-c1c(C)nn(C)c1O[C@@H](C)CN(C)C2 [Ex. 47, 2-[(10S,17E)-16-ethoxy-6,8,10,12,20-pentamethyl-2,8,10,11,12,13-hexahydro-14H-5,3-(azenometheno)tripyrazolo[3,4-f:3′,4′-j:4″,3″-n][1,4]oxazacyclopentadecin-14-yl]ethan-1-ol] | 200 | 1770 | 180 | 620 | 70 | 1060 | 570 | 430 | 1800 | 1500 | 320 | 270 | 280 | 200 | 15200 | 1130
CCOc1nn(CCO)c2c1/C=C/c1n[nH]c3cnc(cc13)-c1c(C)nn(C)c1O[C@@H](C)CN(CC)C2 [Ex. 15, 2-[(10S,17E)-16-ethoxy-12-ethyl-6,8,10-trimethyl-2,8,10,11,12,13-hexahydro-14H-5,3-(azenometheno)tripyrazolo[3,4-f:3′,4′-j:4″,3″-n][1,4]oxazacyclopentadecin-14-yl]ethan-1-ol] | 270 | 760 | 120 | 790 | 60 | 1860 | 180 | 600 | 330 | 580 | 370 | 240 | 370 | 220 | 7480 | 1050
